Source: ChEMBL document CHEMBL6182902, “Design, synthesis, and discovery of cinnamoyl amide derivatives as potent NagZ inhibitors with antibacterial activity” (Eur J Med Chem, 2025)
Calls of active or inactive are those of the source. No cut-off for these calls is given here.

Key:
Escherichia coli = assay: Inhibition of recombinant N-terminal His-tagged Escherichia coli BL21 NagZ extracted from Escherichia coli BL21 using pNP-GlcNAc as substrate at 100 uM by absorbance based assay relative to control
[1] = Inhibition of recombinant N-terminal His-tagged Escherichia coli BL21 NagZ extracted from Escherichia coli BL21 using pNP-GlcNAc as substrate by absorbance based assay
[2] = Inhibition of recombinant N-terminal His-tagged Escherichia coli BL21 NagZ extracted from Escherichia coli BL21 using different concentrations of substrate pNP-GlcNAc by 4-nitrophenolate ion release based spectrophotometric analysis
Pseudomonas aeruginosa [3] = assay: Antibacterial activity against Pseudomonas aeruginosa ATCC 27853 infected in female KM mouse assessed as epithelial tissue proliferation in skin at 20 mg/kg, iv measured after 3 days; type: functional, organism-based; settings: time 3.0 day
Pseudomonas aeruginosa [4] = assay: Antibacterial activity against Pseudomonas aeruginosa ATCC 27853 infected in female KM mouse assessed as wound healing rate in skin at 20 mg/kg, iv measured after 3 days (reference value: 36.2 %); type: functional; settings: time 3 day

Row | Compound | inhibition (Escherichia coli) | IC50 [1] | other results
1 | O=C(/C=C/c1ccc(Cl)c(Cl)c1)NC(Cc1ccc(Br)cc1)C(=O)O (racemic) | 86.1% | 36.5 µM | Ki [2]: 22.4 µM
2 | O=C(/C=C/c1ccccc1)N[C@H](Cc1ccc(Br)cc1)C(=O)O | 15.9% |  | 
3 | COC(=O)[C@H](Cc1ccc(I)cc1)NC(=O)/C=C/c1ccc(F)cc1 | 14% |  | 
4 | O=C(/C=C/c1c[nH]c2ccccc12)N[C@@H](Cc1ccc(I)cc1)C(=O)O | 78.8% | 39.6 µM | Ki [2]: 15.5 µM
5 | O=C(O[C@@H]1Cc2c(O)cc(O)cc2O[C@@H]1c1ccc(O)c(O)c1)c1cc(O)c(O)c(O)c1 [EPICATECHIN GALLATE] | 45.1% | 70.4 µM | 
6 | O=C(/C=C/c1ccc2ccccc2c1)N[C@@H](Cc1ccc(I)cc1)C(=O)O | 87% | 10.8 µM | Ki [2]: 7.4 µM
7 | COC(=O)C(Cc1ccc(Br)cc1)NC(=O)/C=C/c1ccc(Cl)cc1 (racemic) | inactive |  | 
8 | CC1=C(O)C(=O)C=C2C1=CC=C1[C@@]2(C)CC[C@@]2(C)[C@@H]3C[C@](C)(C(=O)O)CC[C@]3(C)CC[C@]12C [CELASTROL] | 50% | 62.8 µM | 
9 | O=C(/C=C/c1ccc(Cl)c(Cl)c1)NC(Cc1ccc(Cl)cc1)C(=O)O (racemic) | 77.1% |  | 
10 | COC(=O)C(Cc1ccc(Br)cc1)NC(=O)/C=C/c1ccc(Cl)c(Cl)c1 (racemic) | inactive |  | 
11 | O=C(O[C@@H]1Cc2c(O)cc(O)cc2O[C@H]1c1cc(O)c(O)c(O)c1)c1cc(O)c(O)c(O)c1 [GALLOCATECHIN GALLATE] | 54.9% | 64.3 µM | 
12 | O=C(/C=C/c1cccc(Cl)c1)N[C@@H](Cc1ccccc1)C(=O)O | 19.9% |  | 
13 | O=C(/C=C/c1ccc(Cl)c(Cl)c1)N[C@@H](Cc1ccccc1)C(=O)O | 50.4% |  | 
14 | O=C(/C=C/c1ccc(F)cc1)N[C@@H](Cc1ccc(I)cc1)C(=O)O | 34.3% |  | 
15 | O=C(/C=C/c1ccco1)N[C@@H](Cc1ccc(I)cc1)C(=O)O | 35.8% |  | 
16 | O=C(/C=C/c1ccc(O)c(O)c1)O[C@H](Cc1ccc(O)c(O)c1)C(=O)O [ROSMARINIC ACID] | 64.3% | 56.1 µM | 
17 | O=C(/C=C/c1ccc(Br)cc1)N[C@@H](Cc1ccc(I)cc1)C(=O)O | 81.2% | 119 µM | Ki [2]: 24.2 µM
18 | O=C(/C=C/c1ccc(F)cc1)NC(Cc1ccc(Br)cc1)C(=O)O (racemic) | 17.5% |  | 
19 | C=CCc1ccc(O)c(-c2cc(CC=C)ccc2O)c1 [MAGNOLOL] | 58.9% | 88.3 µM | 

Row | Compound | inhibition (Escherichia coli) | IC50 [1] | other results
20 | O=C(/C=C/c1ccc(I)cc1)N[C@H](Cc1ccc(Br)cc1)C(=O)O | 76.1% |  | 
21 | O=C(CCc1ccc(Cl)c(Cl)c1)N[C@@H](Cc1ccc(I)cc1)C(=O)O | 73.5% |  | 
22 | O=C(/C=C/c1ccccc1)N[C@@H](Cc1ccc(I)cc1)C(=O)O | 20.2% |  | 
23 | O=C(/C=C/c1ccc(Br)cc1)N[C@@H](Cc1ccccc1)C(=O)O | 16.9% |  | 
24 | CC(=O)N[C@H]1/C(=N/OC(=O)Nc2ccccc2)O[C@H](CO)[C@@H](O)[C@@H]1O [PUGNAC] |  |  | Ki [1]: 0.075 µM
25 | O=C(/C=C\c1ccccc1)N[C@@H](Cc1ccc(I)cc1)C(=O)O | 12% |  | 
26 | O=C(/C=C/c1ccc(I)cc1)N[C@@H](Cc1ccc(I)cc1)C(=O)O | 85.5% | 110 µM | Ki [2]: 14.3 µM
27 | O=C(CCc1ccccc1)N[C@@H](Cc1ccc(I)cc1)C(=O)O | 21.5% |  | 
28 | COC(=O)C(Cc1ccc(Br)cc1)NC(=O)/C=C/c1ccc(F)cc1 (racemic) | 7.2% |  | 
29 | O=C(/C=C/c1cccc([N+](=O)[O-])c1)N[C@@H](Cc1ccc(I)cc1)C(=O)O | 42.1% |  | 
30 | O=C(/C=C/c1ccc([N+](=O)[O-])o1)N[C@@H](Cc1ccc(I)cc1)C(=O)O | 48.4% |  | 
31 | COC(=O)[C@H](Cc1ccccc1)NC(=O)/C=C/c1cccc(Cl)c1 | 11.6% |  | 
32 | O=C(C#Cc1ccccc1)N[C@@H](Cc1ccc(I)cc1)C(=O)O | 29.7% |  | 
33 | O=C(/C=C/c1ccc(Cl)c(Cl)c1)N[C@@H](Cc1c[nH]c2ccccc12)C(=O)O | 68.2% |  | 
34 | O=C(O)[C@H](Cc1ccc(I)cc1)NC(=O)[C@H]1C[C@@H]1c1ccccc1 | 29.1% |  | 
35 | O=C(/C=C/c1ccc(Br)cc1)N[C@H](Cc1ccc(Br)cc1)C(=O)O | 46.5% |  | 
36 | CC1(C)CC[C@]2(C(=O)O)CC[C@]3(C)C(=CC[C@@H]4[C@@]5(C)CC[C@H](O)[C@@](C)(CO)[C@@H]5CC[C@]43C)[C@@H]2C1 [HEDERAGENIN] | 29.4% | 101 µM | 
37 | O=C(/C=C/c1ccc([N+](=O)[O-])cc1)N[C@@H](Cc1ccc(I)cc1)C(=O)O | 37.2% |  | 
38 | COC(=O)[C@H](Cc1ccc(I)cc1)NC(=O)/C=C/c1ccc(Cl)c(Cl)c1 | inactive |  | 

Row | Compound | inhibition (Escherichia coli) | IC50 [1] | other results
39 | O=C(/C=C/c1ccc(Cl)cc1)N[C@H](Cc1ccc(Br)cc1)C(=O)O | 49.8% |  | 
40 | C[C@@H](O)[C@H]1C(=O)N2C(C(=O)O)=C(SCCNC=N)C[C@H]12 [IMIPENEM ANHYDROUS] |  |  | Activity (Pseudomonas aeruginosa [3]): Active; Activity (Pseudomonas aeruginosa [4]): 54.4%
41 | O=C(O[C@@H]1Cc2c(O)cc(O)cc2O[C@@H]1c1cc(O)c(O)c(O)c1)c1cc(O)c(O)c(O)c1 [EPIGALOCATECHIN GALLATE] | 51.4% | 61.2 µM | 
42 | O=C(/C=C/c1ccc(F)c(F)c1)N[C@@H](Cc1ccc(I)cc1)C(=O)O | 30.5% |  | 
43 | O=C(N[C@@H](Cc1ccc(I)cc1)C(=O)O)/C(=C/c1ccccc1)c1ccccc1 | 86.8% | 39.6 µM | Ki [2]: 15.5 µM
44 | O=C(/C=C/c1ccc(O)c(O)c1)N[C@@H](Cc1ccc(I)cc1)C(=O)O | 66.5% |  | 
45 | CC1(C)[C@@H](O)CC[C@]2(C)[C@H]3C(=O)C=C4[C@H]5C[C@@](C)(C(=O)O)CC[C@]5(C)CC[C@@]4(C)[C@]3(C)CC[C@@H]12 [18alpha-GLYCYRRHETINIC ACID] | 69.6% | 75.5 µM | 
46 | O=C(/C=C/c1ccc(O)cc1)N[C@@H](Cc1ccc(I)cc1)C(=O)O | 46.2% |  | 
47 | O=C(/C=C/c1ccc([N+](=O)[O-])o1)N[C@H](Cc1ccc(Br)cc1)C(=O)O | 38.2% |  | 
48 | O=C(/C=C/c1ccc(F)c(Cl)c1)N[C@@H](Cc1ccc(I)cc1)C(=O)O | 72% |  | 
49 | O=C(/C=C/c1ccc(Cl)c(Cl)c1)N[C@H](Cc1ccc(Br)cc1)C(=O)O | 87% | 6.3 µM | Ki [2]: 3.5 µM
50 | O=C(/C=C/c1ccc(Cl)cc1)N[C@@H](Cc1ccc(I)cc1)C(=O)O | 75.7% | 182 µM | Ki [2]: 56.1 µM
51 | O=C(/C=C/c1ccc(Cl)cc1)NC(Cc1ccc(Br)cc1)C(=O)O (racemic) | 37.2% |  | 
52 | O=C(/C=C/c1ccc(F)c(Cl)c1)N[C@H](Cc1ccc(Br)cc1)C(=O)O | 71.6% |  | 
53 | O=C(/C=C/c1c(Cl)cccc1Cl)N[C@@H](Cc1ccc(I)cc1)C(=O)O | 76.9% | 84.9 µM | Ki [2]: 22.2 µM
54 | COC(=O)[C@H](Cc1ccccc1)NC(=O)/C=C/c1ccc(Br)cc1 | inactive |  | 
55 | COC(=O)[C@H](Cc1ccccc1)NC(=O)/C=C/c1ccc(Cl)c(Cl)c1 | inactive |  | 
56 | O=C(/C=C/c1cc(F)c(F)c(F)c1)N[C@@H](Cc1ccc(I)cc1)C(=O)O | 60.3% |  | 
